# Data as given in PubChem BioAssay AID1963841 (Molecular Pharmacology Branch, DTP, NCI, 2024).
# Test system: 439559-082-T-J2-PDC spheroid viability
# Test: Anticancer human tumor 439559-082-T-J2-PDC patient-derived colon adenocarcinoma cell line growth inhibition [POLQ]
# Conditions: spheroids with HUVEC and MSC; for IC50: curve of first compound; for viability, T/C: stronger effect = lower value
# Procedure, shortened: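 Patient-derived tumour cells were co-cultured with HUVEC and mesenchymal stem cells as multicellular spheroids at 37 °C. They were treated with POLQ inhibitors (novobiocin, ART-558, RP6685) alone or combined with other agents. Top concentrations were at or near clinical Cmax (otherwise 10 microM; SN-38 at 1 microM), decreasing in half-log steps.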
# [1] = second compound 0.0316 µM, first compound 0.0316 µM
# [2] = second compound 0.0316 µM, first compound 0.1 µM
# [3] = second compound 0.1 µM, first compound 0.0316 µM
# [4] = second compound 0.1 µM, first compound 0.1 µM
# [5] = second compound 0.316 µM, first compound 0.0316 µM
# [6] = second compound 0.316 µM, first compound 0.1 µM
# [7] = second compound 1 µM, first compound 0.0316 µM
# [8] = second compound 1 µM, first compound 0.1 µM
# [9] = second compound 3.16 µM, first compound 0.0316 µM
# [10] = second compound 3.16 µM, first compound 0.1 µM
# [11] = second compound 10 µM, first compound 0.0316 µM
# [12] = second compound 10 µM, first compound 0.1 µM
# 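Note: spheroids exposed to compounds for seven days before readout.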
# 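Throughout, for viability, T/C: 100% = DMSO vehicle control viability.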
compound,measurement,setting,value
CC1COCCN1c1cc(C2(S(C)(=N)=O)CC2)nc(-c2ccnc3[nH]ccc23)n1 (centres undefined) + Cc1cccc(N(C)C(=O)C2C(O)CCN2c2nc(C)cc(C(F)(F)F)c2C#N)c1,IC50,second compound 0.0316 µM,> 10 µM
same,IC50,second compound 0.1 µM,> 10 µM
same,IC50,second compound 0.316 µM,> 10 µM
same,IC50,second compound 1 µM,> 10 µM
same,IC50,second compound 3.16 µM,> 10 µM
same,IC50,second compound 10 µM,> 10 µM
same,"viability, T/C",[1],105%
same,"viability, T/C",[2],102%
same,"viability, T/C","second compound 0.0316 µM, first compound 0.316 µM",104%
same,"viability, T/C","second compound 0.0316 µM, first compound 1 µM",92.4%
same,"viability, T/C","second compound 0.0316 µM, first compound 3.16 µM",83.4%
same,"viability, T/C","second compound 0.0316 µM, first compound 10 µM",70.5%
same,"viability, T/C",[3],98.6%
same,"viability, T/C",[4],101%
same,"viability, T/C","second compound 0.1 µM, first compound 0.316 µM",97.9%
same,"viability, T/C","second compound 0.1 µM, first compound 1 µM",101%
same,"viability, T/C","second compound 0.1 µM, first compound 3.16 µM",84.7%
same,"viability, T/C","second compound 0.1 µM, first compound 10 µM",70.4%
same,"viability, T/C",[5],97.3%
same,"viability, T/C",[6],97.8%
same,"viability, T/C","second compound 0.316 µM, first compound 0.316 µM",103%
same,"viability, T/C","second compound 0.316 µM, first compound 1 µM",94.5%
same,"viability, T/C","second compound 0.316 µM, first compound 3.16 µM",94.2%
same,"viability, T/C","second compound 0.316 µM, first compound 10 µM",75%
same,"viability, T/C",[7],102%
same,"viability, T/C",[8],98.2%
same,"viability, T/C","second compound 1 µM, first compound 0.316 µM",101%
same,"viability, T/C","second compound 1 µM, first compound 1 µM",92.1%
same,"viability, T/C","second compound 1 µM, first compound 3.16 µM",89.1%
same,"viability, T/C","second compound 1 µM, first compound 10 µM",69.2%
same,"viability, T/C",[9],101%
same,"viability, T/C",[10],103%
same,"viability, T/C","second compound 3.16 µM, first compound 0.316 µM",99.9%
same,"viability, T/C","second compound 3.16 µM, first compound 1 µM",96.6%
same,"viability, T/C","second compound 3.16 µM, first compound 3.16 µM",92.2%
same,"viability, T/C","second compound 3.16 µM, first compound 10 µM",68.3%
same,"viability, T/C",[11],95%
same,"viability, T/C",[12],89.6%
same,"viability, T/C","second compound 10 µM, first compound 0.316 µM",96%
same,"viability, T/C","second compound 10 µM, first compound 1 µM",96.6%
same,"viability, T/C","second compound 10 µM, first compound 3.16 µM",80.5%
same,"viability, T/C","second compound 10 µM, first compound 10 µM",59.1%
Cn1ncnc1[C@H]1c2n[nH]c(=O)c3cc(F)cc(c23)N[C@@H]1c1ccc(F)cc1 + Cc1cccc(N(C)C(=O)C2C(O)CCN2c2nc(C)cc(C(F)(F)F)c2C#N)c1,IC50,second compound 0.0316 µM,> 0.1 µM
same,IC50,second compound 0.1 µM,> 0.1 µM
same,IC50,second compound 0.316 µM,> 0.1 µM
same,IC50,second compound 1 µM,> 0.1 µM
same,IC50,second compound 3.16 µM,> 0.1 µM
same,IC50,second compound 10 µM,> 0.1 µM
same,"viability, T/C","second compound 0.0316 µM, first compound 0.000316 µM",97.7%
same,"viability, T/C","second compound 0.0316 µM, first compound 0.001 µM",103%
same,"viability, T/C","second compound 0.0316 µM, first compound 0.00316 µM",97.5%
same,"viability, T/C","second compound 0.0316 µM, first compound 0.01 µM",99.2%
same,"viability, T/C",[1],90.8%
same,"viability, T/C",[2],93.4%
same,"viability, T/C","second compound 0.1 µM, first compound 0.000316 µM",108%
same,"viability, T/C","second compound 0.1 µM, first compound 0.001 µM",108%
same,"viability, T/C","second compound 0.1 µM, first compound 0.00316 µM",96%
same,"viability, T/C","second compound 0.1 µM, first compound 0.01 µM",102%
same,"viability, T/C",[3],94.5%
same,"viability, T/C",[4],86.3%
same,"viability, T/C","second compound 0.316 µM, first compound 0.000316 µM",105%
same,"viability, T/C","second compound 0.316 µM, first compound 0.001 µM",107%
same,"viability, T/C","second compound 0.316 µM, first compound 0.00316 µM",99.6%
same,"viability, T/C","second compound 0.316 µM, first compound 0.01 µM",99.5%
same,"viability, T/C",[5],92.7%
same,"viability, T/C",[6],93.4%
same,"viability, T/C","second compound 1 µM, first compound 0.000316 µM",110%
same,"viability, T/C","second compound 1 µM, first compound 0.001 µM",96.5%
same,"viability, T/C","second compound 1 µM, first compound 0.00316 µM",93.1%
same,"viability, T/C","second compound 1 µM, first compound 0.01 µM",92.8%
same,"viability, T/C",[7],99.9%
same,"viability, T/C",[8],96.8%
same,"viability, T/C","second compound 3.16 µM, first compound 0.000316 µM",93%
same,"viability, T/C","second compound 3.16 µM, first compound 0.001 µM",103%
same,"viability, T/C","second compound 3.16 µM, first compound 0.00316 µM",103%
same,"viability, T/C","second compound 3.16 µM, first compound 0.01 µM",91.9%
same,"viability, T/C",[9],101%
same,"viability, T/C",[10],87.5%
same,"viability, T/C","second compound 10 µM, first compound 0.000316 µM",95.7%
same,"viability, T/C","second compound 10 µM, first compound 0.001 µM",98.1%
same,"viability, T/C","second compound 10 µM, first compound 0.00316 µM",95.4%
same,"viability, T/C","second compound 10 µM, first compound 0.01 µM",86.2%
same,"viability, T/C",[11],91.5%
same,"viability, T/C",[12],85.2%
